From publication PMC12040169 (PLOS Biology, 2025)

assay: in vitro; conditions: human, hela cells, % viability

| Compound | viability at 28.5 h, 10 µM |
| --- | --- |
| O=C1COc2ccccc2C/C=C/CC2(CCN(C(=O)c3n[nH]c4c3CCC4)CC2)CN1 [CBK292019] | 111% |
| CCc1cc(Br)ccc1S(=O)(=O)NCCCC(=O)OC [CBK044788] | 88.2% |
| CNC(=O)N1CC(=O)N(Cc2cccc(Cl)c2)C1=O [CBK001918] | 104% |
| Cc1ccc(SCCNCCN2CCOCC2)cc1 [CBK268581G] | 104% |
| Cc1nc2ccccn2c1-c1csc(Nc2cccc(C(=O)O)c2)n1 [CBK263303B] | 92.7% |
| CC(C)c1cc(C(=O)N2CCNC(c3ccccc3)C2)nc2ncnn12 (stereo not drawn) [CBK306533] | 91.9% |
| CC(=O)N1CCN([C@H]2[C@@H]3OC[C@@H](O3)[C@@H](NCC3CCCCC3)[C@@H]2O)CC1 [CBK288809] | 90.6% |
| Cc1nc2c(oc3nc(-c4ccoc4)c4c(c32)CC(C)(C)OC4)c(-c2ccccc2)c1C(=O)O [CBK265286] | 109% |
| COCC(C)N(C)S(=O)(=O)c1ccc(Cl)nc1 (stereo not drawn) [CBK304813] | 95.2% |
| CC(=O)Nc1ccc(S(=O)(=O)Nc2ccc(-c3csc(C)n3)cc2)cc1 [CBK266261] | 85.7% |
| Cc1cc(C(F)(F)F)nc(NCc2ccco2)n1 [CBK269555] | 105% |
| CCN(Cc1ccco1)C(=O)Cn1c(=O)n(C)c2ncccc21 [CBK282390] | 99.3% |
| Cc1ccc(CN(C(=O)/C=C/C(=O)O)C(C)(C)C)cc1 [CBK286799] | 91.5% |
| Cc1ocnc1C(=O)Nc1nc2c(cc1C#N)CCC2 [CBK306365] | 92.7% |
| COc1ccc(C2Sc3ccccc3N(CCN(C)C)C(=O)C2OC(C)=O)cc1 (stereo not drawn) [CBK010647] | 98% |
| CS(=O)(=O)Nc1cc2ccccc2c(-c2ccc3c(c2)CCO3)n1 [CBK073773] | 90.5% |
| Cc1csc(NC(=O)CN2CCC(c3ccccc3F)CC2)n1 [CBK283569] | 109% |
| O=C(c1ccc(OC(F)(F)F)cc1)N1CCC2(CCN(C(=O)c3ccoc3)C2)C1 (stereo not drawn) [CBK131735] | 92.8% |
| O=[N+]([O-])c1ccc(OCCCNCCO)cc1 [CBK262244] | 92.3% |
| Cc1cc(Br)cc(C)c1OCCNCCN(C)C [CBK267808G] | 106% |
| O=S(=O)(CC(CN1CCCCC1)N1CCCCC1)c1ccc2ccccc2c1 (stereo not drawn) [CBK267087] | 100% |
| CCN(CC)C(=O)CN(CCc1ccc(OC)c(OC)c1)C(=O)NCCc1c[nH]c2ccccc12 [CBK158741] | 91.1% |
| COc1ccc(CN2CCC(O)CC2)c(OC)c1 [CBK261522] | 95.9% |

| Compound | viability at 28.5 h, 10 µM |
| --- | --- |
| Nc1nc2cc3c(cc2[nH]1)OCO3 [CBK023191] | 96.6% |
| CCn1ncc(CN(CCN(C)C)Cc2cccs2)c1C [CBK282958] | 107% |
| CS(=O)(=O)N1CC2(CCN(CCc3ccc(F)cc3)CC2)c2ccccc21 [CBK084103] | 93.3% |
| CSc1cc(C)c2c(c1)COC1(CCN(CC3CC3)CC1)O2 [CBK061383] | 94.1% |
| Cc1nn(C)c(C)c1NC(=O)c1ccc(S(=O)(=O)N(C)C)cc1 [CBK266059] | 93.8% |
| CCC(=O)Nc1ccc(-c2nc3ccccc3[nH]2)cc1 [CBK287561] | 98.7% |
| CCSCCN1CCC(Oc2nccnc2OCc2ccc(Br)cc2F)CC1 [CBK161087] | 98.7% |
| O=C(CN1CCC(c2ccc(F)cc2)CC1)N1CCOCC1 [CBK283683] | 88.4% |
| CSc1ccccc1NC(=O)Cn1c(-c2nonc2N)nc2ccccc21 [CBK266919] | 90% |
| O=C(c1ccoc1)N1CCC2(CCCN(Cc3cc(=O)[nH]c(=O)[nH]3)C2)C1 (stereo not drawn) [CBK132823] | 97.8% |
| Nc1ncnc2[nH]c(SCc3nc4ccc(I)cc4c(=O)n3-c3ccccc3)nc12 [CBK267174] | 96.2% |
| Cc1ccc(C(F)(F)F)cc1NCc1csc(C2CCCO2)n1 (stereo not drawn) [CBK305424] | 92.8% |
| Cc1cc(C2CCCCCN2C(=O)c2c(C)noc2C)on1 (stereo not drawn) [CBK284844] | 90% |
| O=C(Cc1ccccn1)N1CCc2ccccc2C1 [CBK200334] | 104% |
| O=C(CNC(=O)c1cccc(F)c1)N/N=C1/C(=O)N(Cc2ccc3c(c2)OCO3)c2ccccc21 [CBK263519] | 102% |
| O=C(Cn1c(=O)[nH]c2c(oc3ccccc32)c1=O)Nc1ccccc1 [CBK287818] | 104% |
| COc1cc(C(C)=O)ccc1OCC(O)Cn1c(=O)n(-c2ccccc2)c(=O)c2ccccc21 (stereo not drawn) [CBK296677] | 94.4% |
| COc1ccc(Cn2nc3nnc(-c4ccc(F)cc4)c(-c4ccc(F)cc4)n3c2=O)cc1 [CBK286183] | 107% |
| COc1ccc(CN2Cc3nc[nH]c3C[C@H]2C(=O)N2CCC(Cc3ccccc3)CC2)cc1 [CBK288980] | 110% |
| Cc1ccc(-n2cccn2)cc1S(=O)(=O)NCCN1CCCCC1CO (stereo not drawn) [CBK307163] | 122% |
| Cc1ccsc1-c1nc2cnccn2c1NC1CCCC1 [CBK283524] | 93.9% |
| CCc1noc(C)c1C(=O)NCC1CCCCN1CC (stereo not drawn) [CBK282201] | 97.3% |
| CC(=O)N(C)c1nc(-c2ccccc2C)ccc1C(=O)Nc1cc(C)nn1C [CBK106357] | 88.6% |

| Compound | viability at 28.5 h, 10 µM |
| --- | --- |
| Cc1ccc(C(=O)N/C(=C\c2ccc3c(c2)OCO3)C(=O)NCC(=O)O)cc1 [CBK265669] | 109% |
| Cc1cccc(N(CC(=O)Nc2ccc3c(c2)oc2ccccc23)S(=O)(=O)c2ccccc2)c1 [CBK264813] | 101% |
| CCC(CO)Nc1cncc(-c2cc(C(C)C)ccc2OC)n1 (stereo not drawn) [CBK065743] | 91.7% |
| Cc1cc(CNCc2c(C(C)C)nn(C)c2N(C)C)no1 [CBK304855] | 97% |
| O=C(O)CCC(=O)Nc1ccc(S(=O)(=O)Nc2ccc(I)cc2)cc1 [CBK264866] | 99.9% |
| CCN(CC)C(=O)c1cnoc1-c1ccc(Br)cc1 [CBK153725] | 94.4% |
| O=C(CCNC(Cc1ccccc1)C(=O)O)c1ccccc1 (stereo not drawn) [CBK286655] | 83% |
| COc1ccc(-n2c(S)nnc2-c2cccs2)cc1 [CBK266832] | 103% |
| Cc1cc(C)n2nc(NC(=O)C(C)Oc3ccccc3)nc2n1 (stereo not drawn) [CBK270039] | 89.9% |
| Fc1ccc(SCCc2ccccn2)cc1 [CBK026491G] | 82.9% |
| O=C(O)CSc1nccn1Cc1ccccc1 [CBK262215] | 103% |
| CCOc1cc(C)c(-c2cc(N)[nH]n2)cc1OCC [CBK288216] | 85.9% |
| O=C(NCc1cccnc1)c1csc2c1CCCC2 [CBK305029] | 86.4% |
| CCNC(=O)C1CCN(Cc2c[nH]nc2-c2ccc(F)cc2)C1 (stereo not drawn) [CBK307438] | 90% |
| COC(=O)c1c(NC(=O)C2C3C=CC(C3)C2C(=O)O)sc2c1CCCCC2 (stereo not drawn) [CBK262653] | 80.2% |
| Cn1c2c(c3ccccc31)C(=O)NCC2 [CBK003517] | 89% |
| COc1cc(CNCCc2c[nH]c3ccccc23)cc(Cl)c1OC [CBK269861C] | 88.5% |
| Cn1ccnc1Sc1nc2ccccc2nc1N1CCCC1 [CBK093791] | 92.4% |
| COc1cc2nc(N3CCC4(CCN(C(=O)C(c5ccccc5)C(C)C)C4)C3)nc(N)c2cc1OC (stereo not drawn) [CBK160790] | 76.3% |
| CSc1nnc2c(n1)[nH]c1ccccc12 [CBK025967] | 96.6% |
| Cc1ccc(S(=O)(=O)Nc2ccc(Nc3cc(-c4cc(C(F)(F)F)cc(C(F)(F)F)c4)ncn3)cc2)cc1 [CBK090968] | 99.6% |
| CCN1C(=O)COC[C@@H]1[C@H](O)c1ccc(NC(=O)COc2ccccc2)cc1 [CBK289685] | 96.6% |
| CCc1ccccc1-c1cccc(C(=O)NCC(O)CN(C)C)c1 (stereo not drawn) [CBK306604] | 92.9% |

| Compound | viability at 28.5 h, 10 µM |
| --- | --- |
| CN(C)CCCN(Cc1ccc2ncccc2c1)Cc1ccco1 [CBK283197] | 112% |
| Cc1cc(Cc2cccc(Cl)c2)cc(C2CCCN(C(=O)CN3CCCC3=O)C2)n1 (stereo not drawn) [CBK286103] | 94% |
| Cc1cc(N2CCN(C(=O)c3c[nH]c(=O)[nH]3)CC2)nc(C(C)C)n1 [CBK296681] | 111% |
| O=C(Nc1ccc(N2CCNCC2)nc1)C1CCC1 [CBK004743T] | 86.2% |
| O=C(CSc1nnc(-c2cccc(Br)c2)o1)Nc1cccc([N+](=O)[O-])c1 [CBK264212] | 101% |
| O=C(Nn1cnnc1)c1cccc(C(=O)Nn2cnnc2)c1 [CBK091759] | 99.4% |
| COc1ccccc1OCc1ccc(Cl)s1 [CBK002782] | 82.7% |
| CC(=O)c1cccc(-c2nc(CC3CCN(C)CC3)nn2CCO)c1 [CBK306645] | 98.3% |
| CC(C)(CSc1nnc(Nc2ccccc2)s1)NS(=O)(=O)c1ccc(Cl)cc1 [CBK266388] | 108% |
| Cc1ccc(C(=O)N2CC(=O)N(CCO)C2)cc1 [CBK045864] | 110% |
| COc1ccc(OCc2ncc(C(C)(C)C)o2)c(C(C)=O)c1 [CBK305079] | 115% |
| COc1ccc(C(=O)N2CCC3(CCN(Cc4ccc(OC(F)(F)F)cc4)C3)C2)cc1OC (stereo not drawn) [CBK132148] | 89% |
| Cc1cc2cc(C(F)(F)F)nc-2n(CC(=O)NC2CC2)c1 [CBK282888] | 106% |
| O=C(NCc1cccnc1)N1CCN(CCc2ccccc2)CC1 [CBK158906] | 93.7% |
| CCN(C(=O)Nc1ccc(-c2ccco2)cc1)C1CCOCC1 [CBK306916] | 95.8% |
| CCn1cc(-c2cncn2CCn2nc(C)c(Cl)c2C)cn1 [CBK281708] | 87.9% |
| CCN(CC)C(=O)Cn1nc(C)n2c(cc3occc32)c1=O [CBK283620] | 86.7% |
| COC(=O)C1CCN(Cc2nc3sc4c(c3c(=O)[nH]2)CCC(C)C4)CC1 (stereo not drawn) [CBK304978] | 99.2% |
| CC(C)(C)C(=O)NCCN1CCC(O)(c2ccc(F)cc2)CC1 [CBK283262] | 92% |
| Cc1cc(C)c2[nH]c(C)c(CC(=O)N(C)CCN(C)C)c2c1 [CBK282731] | 82.5% |

same assay, conditions: human, hela cells, % viability, bulk resorufin, single well

| Compound | viability at 28.5 h, 10 µM |
| --- | --- |
| CCOC(=O)C1(c2ccccc2)CCN(C(=O)CCC(=O)O)CC1 [CBK132197] | 94.7% |
